Where two headings read alike, the source gives them in different places.
How the values were obtained:
[1] = tested on: luciferase-expressing P. berghei liver stage parasites in HepG2 cells; assay: Inhibition of liver-stage development assay (ILSDA), Method 2 (WRAIR, 96-well); format: cell-based, Plasmodium berghei; conditions: for Max Resp (signal direction of the dose response): Decrease = decreasing P. berghei viability with dose, Increase = increasing signal, Inactive = no dose response; for Activity direction (Decrease / Inactive): P. berghei liver stage
[2] = in vitro; conditions: human, hepg2-a16-cd81egfp cells
[3] = Plasmodium berghei, HepG2, Method 2, Hill fit, 50% of maximum activity response, read-out: AC50
[4] = Plasmodium berghei, HepG2, Method 2, log10 of molar AC50 from Hill fit, read-out: Log AC50 (converted)
[5] = Plasmodium berghei, HepG2, P. berghei liver stage, Method 2, dose response, read-out: AC50
[6] = Plasmodium berghei, HepG2, P. berghei liver stage, Method 2, dose response, read-out: Log AC50 (converted)

SMILES | viability at 3 µM ([2]; % viability) [%] | further results
O=C(Nc1ncccc1O)c1ccc(S(=O)(=O)Nc2ccccc2)cc1 [MLS001099437-01] | – | Max Resp (signal direction of the dose response) ([1]; Method 2): Inactive
Cc1ccc(C(=O)Nc2nc(-c3ccccn3)cs2)cc1S(=O)(=O)N1CCOCC1 [MLS002157637] | 58.9 | –
O=C(Nc1nc(-c2ccccn2)cs1)c1cccc(S(=O)(=O)N2CCOCC2)c1 [MLS002161290] | 62.2 | –
C/C(=N\NC(=O)c1ccccc1OCc1ccc(F)cc1)c1ccccn1 [MLS002162875] | 82 | –
CCc1ccccc1OC[C@@H](O)CN[C@H]1CCCc2ccccc21 [MLS002172481] | 97.6 | –
CC(C)(C)OC(=O)N1CCC(CC2CC(c3ccccc3)=NO2)(C(=O)NCc2ccccc2)CC1 (centres unmarked) [MLS002174287] | 99.3 | –
COc1cc2ccccc2cc1C(=O)N1CCCC(C(F)(F)F)C1 (centres unmarked) [MLS002180647] | 86 | –
O=C1N(c2ccccc2C(F)(F)F)OC1(Cc1ccccc1)c1ccccc1 (centres unmarked) [MLS002206595] | 85 | –
COc1ccc([C@@]2(C(C)C)ON(c3ccccc3C(F)(F)F)C2=O)cc1 [MLS002206606] | 83.8 | –
CC[C@]1(c2ccccc2OC)ON(c2ccccc2C(F)(F)F)C1=O [MLS002206607] | 102 | –
CC[C@@]1(c2ccccc2OC)ON(c2ccccc2C(F)(F)F)C1=O [MLS002206609] | 92.6 | –
COc1ccccc1[C@@]1(C)ON(c2ccccc2C(F)(F)F)C1=O [MLS002206613] | 88.4 | –
O=C1C=C(c2cccc(CO)c2)C[C@@H](c2ccc(Cl)cc2)C1 [MLS002302575] | 102 | –
N#Cc1nc(Nc2cc(F)cc(F)c2)c2ncn(CC(F)F)c2n1 [MLS002471784] | 90 | –
CCNc1nc(C#N)nc2c1ncn2-c1cc(F)cc(F)c1 [MLS002471787] | 99.9 | –
Clc1ccccc1C(c1ccccc1)(c1ccccc1)n1ccnc1 [NCGC00015251] | 99.7 | –
O=S1(=O)N(CCN2CC=C(c3c[nH]c4cc(F)ccc34)CC2)c2cccc3c2N1CCC3 [NCGC00015600] | 76.3 | –
CCc1nc(N)nc(N)c1-c1ccc(Cl)cc1 [NCGC00023188] | 95.9 | –
Oc1c(CN2CCN(c3ccccn3)CC2)cc(Cl)c2cccnc12 [NCGC00055619] | 77.4 | –
CC(C)(C)CC(C)(C)c1ccc(O)c(Cc2ccc(Cl)cc2Cl)c1 [NCGC00095016] | 93.1 | –
CC[C@@H](C(=O)[C@@H](C)[C@@H](O)[C@H](C)CCc1ccc(C)c(O)c1C(=O)O)[C@H]1O[C@](CC)([C@H]2CC[C@](O)(CC)[C@H](C)O2)C[C@@H]1C [NCGC00095029] | 27.3 | –
FC(F)(F)c1cccc(Nc2nc3nonc3nc2Nc2ccc(Cl)cc2)c1 [NCGC00100377] | 47.1 | –
Cc1ccc(NC2=C(c3ccc(C(F)(F)F)cc3)C(=O)c3ccccc32)cc1F [NCGC00107266] | – | Max Resp (signal direction of the dose response) ([1]; Method 2): Decrease; AC50 [1, 3]: 112 nM; AC50 [1, 4]: 112 nM
Cc1ccc(NC2=C(c3ccc(C(F)(F)F)cc3)C(=O)c3ccccc32)cc1C [NCGC00107300] | – | Max Resp (signal direction of the dose response) ([1]; Method 2): Decrease; AC50 [1, 3]: 398 nM; AC50 [1, 4]: 398 nM

SMILES | viability at 3 µM ([2]; % viability) [%] | further results
Cc1ccc(C)c(NC2=C(c3ccc(C(F)(F)F)cc3)C(=O)c3ccccc32)c1 [NCGC00107302] | – | Max Resp (signal direction of the dose response) ([1]; Method 2): Decrease; AC50 [1, 3]: 398 nM; AC50 [1, 4]: 398 nM
O=C1C(c2ccc(C(F)(F)F)cc2)=C(Nc2ccc(Cl)cc2)c2ccccc21 [NCGC00107304] | – | Max Resp (signal direction of the dose response) ([1]; Method 2): Inactive
COc1ccc(NC2=C(c3ccc(C(F)(F)F)cc3)C(=O)c3ccccc32)cc1 [NCGC00107310] | – | Max Resp (signal direction of the dose response) ([1]; Method 2): Decrease; AC50 [1, 3]: 282 nM; AC50 [1, 4]: 282 nM
COc1cc2nc(Nc3cccc(F)c3)nc(N)c2cc1OC [NCGC00107351] | 101 | –
COc1cc2nc(Nc3ccc(F)cc3)nc(N)c2cc1OC [NCGC00107353] | 92.7 | –
COc1ccc(C)cc1Nc1nc(N)c2cc(OC)c(OC)cc2n1 [NCGC00107383] | 94.9 | –
Cc1cccc(N2CCN(c3nc4ccccc4c4nnc(C)n34)CC2)c1C [NCGC00107423] | – | Max Resp (signal direction of the dose response) ([1]; Method 2): Inactive
COc1cc2nc(SCc3ccc(F)cc3)n3nc(CCn4c(C)nc5ccccc54)nc3c2cc1OC [NCGC00108638] | 107 | –
COc1ccc(C2Sc3ccccc3N=C3C2=C(O)c2ccccc23)c(OC)c1OC (centres unmarked) [NCGC00108825] | 43.7 | –
CCCN(C(=O)C(=O)Nc1ccc2nc3n(c(=O)c2c1)CCCCC3)c1ccc(OCC)cc1 [NCGC00114456] | 93.7 | –
Cc1cccc(N(C)c2nc3ccccc3c3nnc(C)n23)c1 [NCGC00126108] | – | Max Resp (signal direction of the dose response) ([1]; Method 2): Decrease; AC50 ([1]; Method 2, Hill fit, 50% of maximum activity response, read-out: AC50): 200 nM; Log AC50 (M) ([1]; Method 2, log10 of molar AC50 from Hill fit): -6.700 M
O=C(Nc1ccc(Br)cc1)c1ccc(F)c([S+](=O)([O-])NC2CCCCCC2)c1 [NCGC00139407] | 78.6 | –
CN1CCc2cccc3c2[C@@H]1Cc1ccc(O)c(O)c1-3 [NCGC00142462] | 93.3 | –
O=C1C(=O)c2ncccc2-c2cccnc21 [NCGC00160369] | 24.2 | –
CNc1ccc2oc(C[C@@H]3OC4(CC[C@@H]3C)O[C@H]([C@@H](C)C(=O)c3ccc[nH]3)[C@H](C)C[C@H]4C)nc2c1C(=O)O (some centres unmarked) [NCGC00161647] | 12.5 | –
CN([C@@H](Cc1ccc(OS(=O)(=O)c2cccc3cnccc23)cc1)C(=O)N1CCN(c2ccccc2)CC1)S(=O)(=O)c1cccc2cnccc12 [NCGC00162398] | 95.6 | –
COC(=O)C1=C(C)NC(C)=C(C(=O)OCCCN2CCC(c3ccccc3)(c3ccccc3)CC2)C1c1cccc([N+](=O)[O-])c1 (centres unmarked) [NCGC00163135] | – | viability at 3 µM [2]: 81%
CCN(CC)CCCN(c1ccccc1)C1Cc2ccccc2C1 [NCGC00167576] | 99.6 | –
C=C[C@]1(C)C[C@@H](OC(=O)CSC(C)(C)CNC(=O)[C@H](N)C(C)C)[C@]2(C)[C@H](C)CC[C@]3(CCC(=O)[C@H]32)[C@@H](C)[C@@H]1O [NCGC00167968] | 87.5 | –
O=C(CCCCCCC(=O)Nc1ccccc1)NO [NCGC00168085] | 45.6 | –
Clc1ccc(CCC(Cn2ccnc2)Sc2c(Cl)cccc2Cl)cc1 (centres unmarked) [NCGC00179596] | 100 | –
CCn1cnc2c(Nc3cc(F)cc(F)c3)nc(C#N)nc21 [NCGC00181918] | 79.4 | –
COc1ccc(Nc2cc(O)c3ncccc3c2)cc1 [NCGC00183797] | 69 | –
O=C1c2ccccc2CCc2ccc(B(O)O)cc21 [NCGC00183917] | 82.4 | –

SMILES | viability at 3 µM ([2]; % viability) [%] | further results
O[C@H]1[C@H]2c3cc4c(cc3CN3CCC(=C[C@@H]1O)[C@@H]23)OCO4 [NCGC00262562] | 83.5 | –
O=[S+]([O-])(c1ccc(Cl)cc1)N1CCN(C(=S)Nc2ccc(F)c(Cl)c2)CC1 [NCGC00345140] | 85.6 | –
Cc1ccc(C(=O)Nc2nc(-c3ccccn3)cs2)cc1[S+](=O)([O-])N1CCOCC1 [NCGC00345210] | 29.5 | –
OCCCNc1cc(-c2ccnc(Nc3cccc(Cl)c3)n2)ccn1 [NCGC00346940] | 8.46 | –
O[C@H]1[C@H](NCC2CCCCC2)[C@H]2CO[C@H](O2)[C@@H]1N1CCC(Cc2ccccc2)CC1 [NCGC00394729] | 99.2 | –
CC1=C[C@@H](CNCc2cccnc2)[C@H](C(C)C)C[C@H]1Cc1nnc(-c2ccc([N+](=O)[O-])cc2)o1 [NCGC00394797] | 91.7 | –
c1ccc(Nc2cc3c(cn2)CN(Cc2ccc4[nH]ccc4c2)CCN3)cc1 [NCGC00411105] | 49.4 | –
COc1ccccc1Nc1cnc2ccc(-c3ccc(OC)c(OC)c3)nn12 [NCGC00412573] | 82.7 | –
N#Cc1cccc(CN2CC(CNc3ccccc3)C3(C2)CN(c2ccccc2)C3)c1 (centres unmarked) [NCGC00415808-01] | – | Activity direction (Decrease / Inactive) ([1]; Method 2, dose response): Decrease; AC50 [1, 5]: 2240 nM; AC50 [1, 6]: 2240 nM
c1ccc(OCC2CN(Cc3ccc4[nH]ccc4c3)CC23CN(c2ccccc2)C3)cc1 (centres unmarked) [NCGC00415812-01] | – | Activity direction (Decrease / Inactive) ([1]; Method 2, dose response): Inactive
O=C(O)c1cccc(CN2CC(CNC(=O)c3ccccc3)C3(C2)CN(c2ccccc2)C3)c1 (centres unmarked) [NCGC00415857-01] | – | Activity direction (Decrease / Inactive) ([1]; Method 2, dose response): Decrease; AC50 [1, 5]: 891 nM; AC50 [1, 6]: 891 nM
O=C(NCC1CN(C(=O)Cc2cccc(OC(F)(F)F)c2)CC12CN(c1ccccc1)C2)c1ccccc1 (centres unmarked) [NCGC00415900-01] | – | Activity direction (Decrease / Inactive) ([1]; Method 2, dose response): Inactive
CC(C)CCN1CC(CN[S+](=O)([O-])c2ccccc2)C2(C1)CN(c1ccccc1)C2 (centres unmarked) [NCGC00415920-01] | – | Activity direction (Decrease / Inactive) ([1]; Method 2, dose response): Decrease; AC50 [1, 5]: 2820 nM; AC50 [1, 6]: 2820 nM
c1ccc(NCC2CN(Cc3ccccn3)CC23CN(c2ccccc2)C3)cc1 (centres unmarked) [NCGC00415982-01] | – | Activity direction (Decrease / Inactive) ([1]; Method 2, dose response): Inactive
CC(=O)N1CCN(C(=O)c2ccc3c(c2)NC(C)(COc2ccc4[nH]ccc4c2)CO3)CC1 (centres unmarked) [NCGC00416302] | – | Activity direction (Decrease / Inactive) ([1]; Method 2, dose response): Inactive
CC(C)c1ccc(CC(=O)N2CCCc3ncc(C(=O)Nc4cccnc4)cc32)cc1 [NCGC00420003] | 45.1 | –
Cc1nn2c(c1-c1ccccc1-c1ccccc1)N(CC1CC1)CCC2 [NCGC00420435] | 49.8 | –
Cc1nn2c(c1-c1ccccc1-c1ccccc1)N(CCC(C)C)CCC2 [NCGC00420437] | 15.3 | –
Cc1cc(C)cc(C(=O)Nc2ccc3c(N4CCCC4)ncnc3c2)c1 [NCGC00425487] | 31.8 | –
O=C(Nc1ccc2c(N3CCCCC3)ncnc2c1)c1cc(F)cc(F)c1 [NCGC00425525] | 53.4 | –
O=C(Nc1ccc2c(N3CCOCC3)ncnc2c1)c1cccc(Br)c1 [NCGC00425561] | 49.3 | –
COc1ccc(CCC(=O)N2Cc3ccccc3OC3(CCN(C)CC3)C2)cc1 [NCGC00456460] | 106 | –
